The subject of data set [1] is rodent model of fibromyalgia. In words: Rodent model of fibromyalgia (reserpine), mechanical allodynia, CMX-020 and Pregabalin. The data set is classed as in vivo, male Sprague Dawley rats.
A short description of a further data set: clinical. The following applies: both, human, in vivo, po.
The test system of data set [2] is rodent model of Chemotherapeutic induced pain. In words: Chemotherapeutic (paclitaxel) induced pain model, mechanical allodynia, CMX-020 and Duloxetine. The data set is classed as in vivo, male Sprague Dawley rats. How it is done: In FIGS. 16 and 17, groups of male Sprague Dawley rats received four daily consecutive injections of paclitaxel (1 mg/kg, ip), followed by a second series of four daily injections one week after the first injection, inducing a model of chemotherapeutic-induced peripheral neuropathy Animals were tested 2-3 days after receiving the last injection of paclitaxel with treatment of CMX-020 and Duloxetine administered either alone or in combination at various combinational doses and efficacy was tested using mechanical allodynia pain thresholds (Von Frey Filaments, up-down method). The method of Chou-Talalay and CompuSyn computer software were used to automate analysis of dose effect data for each individual drug and their combination. […] The fold reduction of Duloxetine in combination with CMX-020 is greater than 2-fold in efficacy ranges at and greater than 20% (FIG. 17).

Data set [3] has as its system post-operative pain model. In words: Post-operative pain model (hindpaw incision), mechanical allodynia (Von Frey filament). Format: in vivo, male Sprague Dawley rats. As to conditions: CMX-020 intraduodenally at various doses in DHA TG, 3 hours post-surgery. How it is done:
In FIG. 7, groups of male Sprague Dawley rats were administered CMX-020 intraduodenally at various doses using high purity DHA in triglyceride form as the delivery vehicle. CMX-020 was measured in plasma to determine its concentrations immediately after the efficacy endpoint. Prior to administration, the rat's hindpaw was surgically incised and sutured. 3 hours post-surgery the rats were subjected to mechanical allodynia (Von Frey filament) assessment to quantify the analgesic effect of CMX-020 (% MPE=post drug threshold−baseline threshold/cutoff threshold−baseline threshold×100).

The test system of data set [4] is rodent model of spinal nerve ligation. In words: Spinal nerve ligation model, mechanical allodynia, CMX-020 and Duloxetine. Format: in vivo, male Sprague Dawley rats. On the procedure: In FIGS. 14 and 15, groups of male Sprague Dawley rats underwent a spinal nerve ligation method of the left L5 and L6 spinal nerves, inducing a model of peripheral neuropathic pain. 1 weeks later treatment with CMX-020 and Duloxetine were administered either alone or in combination at various combinational doses and efficacy was tested using mechanical allodynia pain thresholds (Von Frey Filaments, up-down method). The method of Chou-Talalay and CompuSyn computer software were used to automate analysis of dose effect data for each individual drug and their combination. […] The fold reduction of Duloxetine in combination with CMX-020 is greater than 2-fold in efficacy ranges at and greater than 20% (FIG. 15).

Data set [5] concerns rodent model of osteoarthritis. In words: Rodent model of osteoarthritis (MIA), mechanical allodynia, CMX-020 and Tramadol. Format: in vivo, male Sprague Dawley rats.
Data set [6] can be described thus: Plasma exposure of CMX-020 from enterically coated softgels with DHA TG vehicle. Format: in vivo, male cynomolgus monkey. How it is done: In FIG. 5, groups of male cynomolgus monkey were administered CMX-020 (40 mg total dose) in enterically coated softgels at 10, 5 and 2.5% (w/w) using high purity DHA in triglyceride form as the delivery vehicle. CMX-020 was measured through time in plasma to determine its concentrations. FIG. 5 illustrates that the systemic exposure of CMX-020 in DHA TG at various concentrations provides suitable systemic exposure for more than 12 hours. In this study, the optimal concentration was 5% displaying an absolute bioavailability of 20%.

Where [7] appears, read: efficacy ranges at and greater than 20%.

This note sets out measurements from patent publication US10966937B2, “Compositions and methods for delivery of polyunsaturated fatty acid derivatives and analogs” (Cytometix, Inc., priority 2015, dated 2021).

For orientation: Tmax means the time at which the peak concentration occurs. A word on the bioavailability: it is the share of a dose that reaches the circulation, judged against a reference dose that is usually intravenous.

For `CCCCCC(=O)N(CC/C=C\C/C=C\C/C=C\CCCC(=O)NC1CC1)C(C)C` [CMX-020], the “analgesic effect of the combinational therapy (isobologram)” value in data set [1] (co-administered with Pregabalin) is “greater than a simple additive effect”; in data set [2] (in combination with Duloxetine), “greater than a simple additive effect”; in data set [4] (in combination with Duloxetine), “greater than a simple additive effect”; in data set [5] (in combination with Tramadol, 2 weeks after MIA) it was “greater than a simple additive effect”. The time of peak concentration (Tmax) in the data set “clinical” was in the range of 3.5 to 5.5 h. For the same compound, the “relation of systemic exposure to analgesic efficacy (% MPE)” value in data set [3] is given as “positively correlates”. Further, the “duration of suitable systemic exposure” value in data set [6] (CMX-020 40 mg total dose at 10, 5 and 2.5% (w/w) in DHA TG, monkey) was “more than 12 hours”. In addition, the bioavailability in data set [6] (male, cynomolgus monkey, plasma, oral, CMX-020 40 mg total dose, 5% (w/w) in DHA TG, read-out: absolute bioavailability) was found to be 20%.
Consider `CC(C)C[C@H](CN)CC(=O)O` [Pregabalin, reference compound], for which the “fold reduction of Pregabalin in combination with CMX-020” value in data set [1] (efficacy ranges at and greater than 35%) is on record as “greater than 2 fold”.
On to `COc1cccc(C2(O)CCCCC2CN(C)C)c1` (stereo not drawn) [Tramadol, reference compound], for which, in data set [5] (efficacy ranges at and greater than 10%), the “fold reduction of Tramadol in combination with CMX-020” value is given as “greater than 2 fold”.
For the compound `CNCC[C@H](Oc1cccc2ccccc12)c1cccs1` [Duloxetine, reference compound], the “fold reduction of Duloxetine in combination with CMX-020” value in data set [2] (setting [7]) and in data set [4] (setting [7]) was “greater than 2 fold” each time.
